Reference: US20220323443A1, “COMBINATION THERAPY FOR CANCER TREATMENT” (TAKEDA PHARMACEUTICAL COMPANY LIMITED, priority 2019, published 2022)
Counter-ions that a name gives are not always drawn. Like-named read-outs stand apart in the source and are kept apart here. *1 amine or outer side, *2 acyl side, *3 side chain or, on linkers, in order; H or OH if unused. Where a SMILES comes first, the peptide text is derived from it. Bridges are numbered along the chain shown (N, C = ends). Roman numbers before positions name the chains, in order. [ ]: non-standard residue; d: D form. Actinocin(9to1) = Cc1c2oc3c(C)ccc(C(=O)[*:1])c3nc-2c(C(=O)[*:2])c(N)c1=O; NMeV = CN[C@H](C(=O)O)C(C)C; Sar = CNCC(=O)O

Legend:
Test in all cases: In vitro combination study with Compound 1, Cell Titer-Glo (ATP) cell viability, 72 h;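 for Call, anti-proliferative effect of combination with Compound 1, A549: Ten-by-ten dose matrices of the two agents in duplicate, compounds added 16 h post-plating, activity relative to DMSO vehicle wells, call reflects synergy evaluation from luminescence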;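 for Call, anti-proliferative effect of combination with Compound 1, COLO205: Ten-by-ten dose matrices of both agents in duplicate plus single-agent dilutions, luminescent ATP read-out, percent activity per well relative to DMSO vehicle wells, synergy call from these matrices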;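 for Call, anti-proliferative effect of combination with Compound 1, H460: Ten-by-ten dose matrices of both drugs alongside single-agent dilutions, luminescence read 72 hours after compound addition, percent activity per well versus vehicle (DMSO) plate controls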;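 for Call, anti-proliferative effect of combination with Compound 1, HCT116: combination call from 10×10 dose matrices in duplicate, graded by synergy, with percent activity per well relative to DMSO vehicle controls on the same plate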;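 for Call, anti-proliferative effect of combination with Compound 1, SW620: Ten-by-ten dose matrices of both drugs in 384-well plates, luminescent ATP read-out, synergy evaluated against single-agent and DMSO vehicle controls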
H460 cancer cells = assay type: cell-based
Procedure: (§1) Each combination pair was evaluated in an individual 384-well plate which contained variable doses of both compounds as single agents, as well as two, ten-by-ten matrices (in duplicate) that contained mixtures of the two test compounds. In brief, compounds were added to the cell test plates 16 hours after cell plating and then assessed for viability 72 hours later. Continuous cultures of tumor cells were maintained under standard cell culturing conditions (i.e. in a humidified chamber set at 37° C., containing atmosphere 5% carbon dioxide). […] Seventy-two hours after compound addition, ATP levels were measured to assess cell viability. Plating densities were chosen to ensure optimal linear growth over the 72 hour period.
(§2) Compound dilution and compound delivery to the assay plates were done on HighRes Robotic System (HighRes Biosolutions, Woburn, Mass., USA) with Echo™ Liquid Handler (Labcyte, Sunnyvale, Calif., USA). […] Next, these were used for compound transfer into cell assay plates. All wells were back-filled to give a constant percentage of DMSO.
(§3) The final DMSO concentration was held constant in all wells across the plate and was maintained at less than 0.5%. […] Cells treated with vehicle (DMSO) in two rows, or single compound serial dilutions in one plate columns/row served as the untreated control and single compound controls, respectively.
(§4) Compound activity in A549, COLO205, H460, HCT116, SW48, SW620 cancer cell lines was assessed using Cell Titer-Glo® (Promega [Madison, Wis., USA]). After 72 hours incubation, the plates were treated as per package insert protocol for the Promega Luminescence ATP Detection Systems. Briefly, 25 μL of cell lysis/substrate solution (provided in kit form) was added to each well and the plate was incubated at room temperature for 10 minutes. Luminescence was measured using a PHERAstar multi-label counter (BMG Labtech [Ortenberg, Germany]) or LEADseeker (GE Healthcare Life Sciences [Piscataway, N.J., USA]).
(§5) Numerical luminescence values were analyzed to generate EC50 curves and evaluate synergy. Raw Data reader files were uploaded along with automation workfiles that defined the plate and well contents. Percent activities were calculated for each well versus plate controls.
(§6) Each plate representing a single drug combination was analyzed separately. First, the viability measurements were normalized by scaling the data so that the median of the negative controls was 0 and the median of the positive controls was 100.
(§7) For the combination analysis, a response surface model was used to describe the relationship between the normalized viability and the drug concentrations. The data were fit to the model by minimizing the residual sum of squares. Based on the fitted response surface, plots of constant viability, called isobolograms, were produced.
(§8) The Combination Index and Nonlinear Blending were used as measures of drug synergy. To calculate Combination Index the 50% isobologram (which is the dose contour that has 50% viability) was used. […] A standard procedure was created to produce a call in order to characterize the viability effects for each combination (synergy, additivity, subadditivity, or antagonism). If the Combination Index existed then these measures were used to make the call.

HCT116 cancer cells = assay type: cell-based
Procedure: as §1, §2, §3, §4, §5, §6, §7, §8

COLO205 cancer cells = assay type: cell-based, human
Procedure: as §1, §2, §3, §4, §5, §6, §7, §8

A549 cancer cells = assay type: cell-based
Procedure: as §1, §2, §3, §4, §5, §6, §7, §8

SW48 cancer cells = assay type: cell-based
Procedure: as §1
Compound dilution and compound delivery to the assay plates were done on HighRes Robotic System (HighRes Biosolutions, Woburn, Mass., USA) with Echo™ Liquid Handler (Labcyte, Sunnyvale, Calif., USA). First, 384-well low dead volume (LDV) plates containing DMSO (Appendix B) and 10 mM compound stock solutions were used to create the required intermediate compound dilution plates. Next, these were used for compound transfer into cell assay plates. All wells were back-filled to give a constant percentage of DMSO.
as §3, §4, §5, §6, §7, §8

SW620 cancer cells = assay type: cell-based
[1] = Table 5 drug combined with Compound 1, 72 h
[2] = DNA damaging agent combined with Compound 1, 72 h

| SMILES | Call, anti-proliferative effect of combination with Compound 1, H460 (H460 cancer cells; [1]) | Call, anti-proliferative effect of combination with Compound 1, HCT116 (HCT116 cancer cells; [1]) | Call, anti-proliferative effect of combination with Compound 1, COLO205 (COLO205 cancer cells; [1]) | Call, anti-proliferative effect of combination with Compound 1, A549 (A549 cancer cells; [1]) | Call, anti-proliferative effect of combination with Compound 1, SW620 (SW620 cancer cells; [1]) | Call, anti-proliferative effect of combination with Compound 1, H460 (H460 cancer cells; [2]) | Call, anti-proliferative effect of combination with Compound 1, HCT116 (HCT116 cancer cells; [2]) | Call, anti-proliferative effect of combination with Compound 1, SW48 (SW48 cancer cells; [2]) | Call, anti-proliferative effect of combination with Compound 1, SW620 (SW620 cancer cells; [2]) | further results |
| --- | --- | --- | --- | --- | --- | --- | --- | --- | --- | --- |
| Nc1ncn([C@@H]2O[C@H](CO)[C@@H](O)[C@H]2O)c(=O)n1 [Azacitidine] | Additivity (0.7 to 1.3) | Additivity (0.7 to 1.3) | Additivity (0.7 to 1.3) | Additivity (0.7 to 1.3) | Additivity (0.7 to 1.3) | – | – | – | – | Call, anti-proliferative effect of combination with Compound 1, SW48 (SW48 cancer cells; [1]): Additivity (0.7 to 1.3) |
| Cn1c(=O)n(-c2ccc(C(C)(C)C#N)cc2)c2c3cc(-c4cnc5ccccc5c4)ccc3ncc21 [BEZ-235] | Additivity (0.7 to 1.3) | Additivity (0.7 to 1.3) | Additivity (0.7 to 1.3) | Additivity (0.7 to 1.3) | Subadditivity (1.3 to 2) | – | – | – | – | Call, anti-proliferative effect of combination with Compound 1, SW48 (SW48 cancer cells; [1]): Antagonism (>2) |
| O=C(O)CCCc1ccc(N(CCCl)CCCl)cc1 [Chlorambucil] | – | – | – | – | – | Additivity (0.7 to 1.3) | Additivity (0.7 to 1.3) | Additivity (0.7 to 1.3) | – | Call, anti-proliferative effect of combination with Compound 1, A549 (A549 cancer cells): Additivity (key: Inconclusive: Any; Additivity: 0.7 to 1.3; Synergy: 0 to 0.7; Subadditivity: 1.3 to 2; Antagonism: >2) |
| Cc1c2oc3c(C)ccc(C(=O)N[C@@H]4C(=O)N[C@H](C(C)C)C(=O)N5CCC[C@H]5C(=O)N(C)CC(=O)N(C)[C@@H](C(C)C)C(=O)O[C@@H]4C)c3nc-2c(C(=O)N[C@@H]2C(=O)N[C@H](C(C)C)C(=O)N3CCC[C@H]3C(=O)N(C)CC(=O)N(C)[C@@H](C(C)C)C(=O)O[C@@H]2C)c(N)c1=O [Dactinomycin] (I: T[dV]P[Sar][NMeV] / II: T[dV]P[Sar][NMeV]; ester I:1-I:C, II:1-II:C; linker I:N-II:N via Actinocin(9to1)) | – | – | – | – | – | Additivity (0.7 to 1.3) | Additivity (0.7 to 1.3) | – | Additivity (0.7 to 1.3) | Call, anti-proliferative effect of combination with Compound 1, COLO205 (COLO205 cancer cells; [2]): Additivity (0.7 to 1.3); Call, anti-proliferative effect of combination with Compound 1, A549 (A549 cancer cells): Additivity (key: Inconclusive: Any; Additivity: 0.7 to 1.3; Synergy: 0 to 0.7; Subadditivity: 1.3 to 2; Antagonism: >2) |
| COc1cccc2c1C(=O)c1c(O)c3c(c(O)c1C2=O)C[C@@](O)(C(C)=O)C[C@@H]3O[C@H]1C[C@H](N)[C@H](O)[C@H](C)O1 [Daunorubicin] | – | – | – | – | – | – | – | – | – | Call, anti-proliferative effect of combination with Compound 1, H460 (H460 cancer cells): Additivity (key: Inconclusive: Any; Additivity: 0.7 to 1.3; Synergy: 0 to 0.7; Subadditivity: 1.3 to 2; Antagonism: >2); Call, anti-proliferative effect of combination with Compound 1, HCT116 (HCT116 cancer cells): Synergy (key: Inconclusive: Any; Additivity: 0.7 to 1.3; Synergy: 0 to 0.7; Subadditivity: 1.3 to 2; Antagonism: >2); Call, anti-proliferative effect of combination with Compound 1, COLO205 (COLO205 cancer cells): Additivity (key: Inconclusive: Any; Additivity: 0.7 to 1.3; Synergy: 0 to 0.7; Subadditivity: 1.3 to 2; Antagonism: >2); Call, anti-proliferative effect of combination with Compound 1, A549 (A549 cancer cells): Additivity (key: Inconclusive: Any; Additivity: 0.7 to 1.3; Synergy: 0 to 0.7; Subadditivity: 1.3 to 2; Antagonism: >2); Call, anti-proliferative effect of combination with Compound 1, SW48 (SW48 cancer cells): Additivity (key: Inconclusive: Any; Additivity: 0.7 to 1.3; Synergy: 0 to 0.7; Subadditivity: 1.3 to 2; Antagonism: >2); Call, anti-proliferative effect of combination with Compound 1, SW620 (SW620 cancer cells): Synergy (key: Inconclusive: Any; Additivity: 0.7 to 1.3; Synergy: 0 to 0.7; Subadditivity: 1.3 to 2; Antagonism: >2) |
| Nc1ncn([C@H]2C[C@H](O)[C@@H](CO)O2)c(=O)n1 [Decitabine] | – | – | – | – | – | Synergy (0 to 0.7) | Synergy (0 to 0.7) | Additivity (0.7 to 1.3) | Additivity (0.7 to 1.3) | – |
| COc1cccc2c1C(=O)c1c(O)c3c(c(O)c1C2=O)C[C@@](O)(C(=O)CO)C[C@@H]3O[C@H]1C[C@H](N)[C@H](O)[C@H](C)O1 [Doxorubicin hydrochloride] | – | – | – | – | – | Synergy (0 to 0.7) | Subadditivity (1.3 to 2) | – | Additivity (0.7 to 1.3) | Call, anti-proliferative effect of combination with Compound 1, COLO205 (COLO205 cancer cells; [2]): Synergy (0 to 0.7); Call, anti-proliferative effect of combination with Compound 1, A549 (A549 cancer cells; [2]): Synergy (0 to 0.7) |
| Nc1ccccc1NC(=O)c1ccc(CNC(=O)OCc2cccnc2)cc1 [Entinostat] | Synergy (0 to 0.7) | Additivity (0.7 to 1.3) | Subadditivity (1.3 to 2) | Synergy (0 to 0.7) | Synergy (0 to 0.7) | – | – | – | – | Call, anti-proliferative effect of combination with Compound 1, SW48 (SW48 cancer cells; [1]): Subadditivity (1.3 to 2) |
| COc1cc([C@@H]2c3cc4c(cc3[C@@H](O[C@@H]3O[C@@H]5CO[C@@H](C)O[C@H]5[C@H](O)[C@H]3O)[C@H]3COC(=O)[C@H]23)OCO4)cc(OC)c1O [Etoposide] | Synergy (0 to 0.7) | Synergy (0 to 0.7) | Synergy (0 to 0.7) | Synergy (0 to 0.7) | Synergy (0 to 0.7) | – | – | – | – | Call, anti-proliferative effect of combination with Compound 1, SW48 (SW48 cancer cells; [1]): Synergy (0 to 0.7) |
| CS(=O)(=O)N1CCN(Cc2cc3nc(-c4cccc5[nH]ncc45)nc(N4CCOCC4)c3s2)CC1 [GDC-0941] | Synergy (0 to 0.7) | Synergy (0 to 0.7) | Additivity (0.7 to 1.3) | Additivity (0.7 to 1.3) | Additivity (0.7 to 1.3) | – | – | – | – | – |
| N[C@@H](Cc1ccc(N(CCCl)CCCl)cc1)C(=O)O [Melphalan] | – | – | – | – | – | – | Synergy (0 to 0.7) | Additivity (0.7 to 1.3) | Synergy (0 to 0.7) | Call, anti-proliferative effect of combination with Compound 1, A549 (A549 cancer cells): Synergy (key: Inconclusive: Any; Additivity: 0.7 to 1.3; Synergy: 0 to 0.7; Subadditivity: 1.3 to 2; Antagonism: >2) |
| CO[C@@]12[C@H](COC(N)=O)C3=C(C(=O)C(C)=C(N)C3=O)N1C[C@@H]1N[C@@H]12 [Mitomycin C] | – | – | – | – | – | Synergy (0 to 0.7) | Synergy (0 to 0.7) | Synergy (0 to 0.7) | Synergy (0 to 0.7) | Call, anti-proliferative effect of combination with Compound 1, COLO205 (COLO205 cancer cells; [2]): Subadditivity (1.3 to 2); Call, anti-proliferative effect of combination with Compound 1, A549 (A549 cancer cells; [2]): Synergy (0 to 0.7) |
| O=C1c2c(O)ccc(O)c2C(=O)c2c(NCCNCCO)ccc(NCCNCCO)c21 [Mitoxantrone hydrochloride] | – | – | – | – | – | Synergy (0 to 0.7) | Synergy (0 to 0.7) | Additivity (0.7 to 1.3) | Synergy (0 to 0.7) | Call, anti-proliferative effect of combination with Compound 1, COLO205 (COLO205 cancer cells; [2]): Synergy (0 to 0.7); Call, anti-proliferative effect of combination with Compound 1, A549 (A549 cancer cells; [2]): Synergy (0 to 0.7) |
| Cc1[nH]c2ccccc2c1CCNCc1ccc(/C=C/C(=O)NO)cc1 [Panobinostat] | Additivity (0.7 to 1.3) | Additivity (0.7 to 1.3) | Subadditivity (1.3 to 2) | Additivity (0.7 to 1.3) | Additivity (0.7 to 1.3) | – | – | – | – | – |
| C/C=C(/C)C(=O)O[C@H]1C(C)=C2[C@H]([C@@H]1OC(=O)CCCCCCC)[C@@](C)(OC(C)=O)C[C@H](OC(=O)CCC)[C@@]1(O)[C@H]2OC(=O)[C@@]1(C)O [Thapsigargin] | Additivity (0.7 to 1.3) | Additivity (0.7 to 1.3) | Additivity (0.7 to 1.3) | Additivity (0.7 to 1.3) | Additivity (0.7 to 1.3) | – | – | – | – | – |
| S=P(N1CC1)(N1CC1)N1CC1 [Thio-tepa] | – | – | – | – | – | Additivity (0.7 to 1.3) | Synergy (0 to 0.7) | Additivity (0.7 to 1.3) | Synergy (0 to 0.7) | Call, anti-proliferative effect of combination with Compound 1, A549 (A549 cancer cells): Additivity (key: Inconclusive: Any; Additivity: 0.7 to 1.3; Synergy: 0 to 0.7; Subadditivity: 1.3 to 2; Antagonism: >2) |
| CC[C@]1(O)C[C@H]2CN(CCc3c([nH]c4ccccc34)[C@@](C(=O)OC)(c3cc4c(cc3OC)N(C=O)[C@H]3[C@@](O)(C(=O)OC)[C@H](OC(C)=O)[C@]5(CC)C=CCN6CC[C@]43[C@@H]65)C2)C1 [Vincristine sulfate] | Additivity (0.7 to 1.3) | Additivity (0.7 to 1.3) | Additivity (0.7 to 1.3) | Subadditivity (1.3 to 2) | Subadditivity (1.3 to 2) | – | – | – | – | – |
